We go through 25 compounds from patent US20260285846A1, “REV-ERB AGONISTS FOR TH17-MEDIATED INFLAMMATORY DISORDERS” (UNIVERSITY OF FLORID RESEARCH FOUNDATION, iNCORPORATED, priority 2021, published 2026).

Some results are limits rather than exact numbers.

The term EC50 denotes the concentration needed to bring the measured effect to its halfway point.

Chain of REV-ERBα LBD (P20393 with tags, fused parts or gaps DEL324-422): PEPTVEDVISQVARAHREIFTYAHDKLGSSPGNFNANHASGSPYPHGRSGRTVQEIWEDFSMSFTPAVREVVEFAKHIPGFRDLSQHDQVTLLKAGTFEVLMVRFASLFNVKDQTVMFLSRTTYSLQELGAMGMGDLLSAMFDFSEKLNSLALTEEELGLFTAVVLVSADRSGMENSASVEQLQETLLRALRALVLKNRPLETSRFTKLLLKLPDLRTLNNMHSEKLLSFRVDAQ
Chain of REV-ERBα LBD (Q9Y618 2335-2356 partner limits assumed): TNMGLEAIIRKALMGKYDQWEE

The target in this assay is REV-ERBα LBD (Homo sapiens, UniProt P20393, DEL324-422). In words: biochemical. To be noted: FRET assay; 6xHistag-REV-ERBα LBD with FITC-labeled SMRT corepressor peptide; read-out: REVERBα (Agonism of REV-ERBα, EC50). The method, then:
TR-FRET corepressor interaction assay. The time-resolved fluorescence resonance energy transfer (TR-FRET) assay was performed in black low-volume 384-well plates (Greiner). Each well contained 4 nM 6×Histag-REV-ERBα LBD (human; residues 281-614 A324-422) or 6×Histag-REV-ERBα LBD (human; residues 381-579) protein expressed in and purified from Escherichia coli using nickel affinity and size exclusion chromatography; 1 nM LanthaScreen Elite Tb-anti-HIS Antibody (Thermo Fisher Scientific); and 400 nM FITC-labeled peptide derived from the SMRT corepressor ([…]) containing a N-terminal FITC label with a six-carbon linker (Ahx) and an amidated C-terminus for stability (synthesized by LifeTein) in TR-FRET buffer (20 mM potassium phosphate, pH 7.4, 50 mM potassium chloride, 1 mM dithiothreitol, and 0.005% Tween-20). Ligand stocks were prepared via serial dilution in DMSO, added to wells in triplicate, and plates were incubated at 4° C. for 2 h and read using a BioTek Synergy Neo multimode plate reader. The Tb donor was excited at 340 nm; its fluorescence emission was monitored at 495 nm, and the acceptor FITC emission was measured at 520 nm; and the TR-FRET ratio was calculated as the signal at 520 nm divided by the signal at 495 nm. Data were plotted using GraphPad Prism as TR-FRET ratio vs. ligand concentration and fit to sigmoidal dose response curve equation.
Exemplary compounds of the present disclosure were assayed as described above to assess agonism of REV-ERBα. Results of the FRET assay are shown in Table 2 below (A: EC50<100 nM; B: EC50 100 nM-1000 nM; C: EC50>1000 nM; NT: not tested).
With `CC(NS(=O)(=O)C1CC1)c1cn(CC(C)(C)C)c2cc(-c3ncccc3C(F)(F)F)c(F)cc12` (single isomer, unassigned) [Compound 17, (R or S)—N-(1-(5-fluoro-1-neopentyl-6-(3-(trifluoromethyl)pyridine-2-yl)-1H-indol-3-yl)ethyl)cyclopropane sulfonamide], the EC50 was in the range of 100 to 1000 nM.

Take `CC(NS(=O)(=O)C1CC1)c1cn(CC(C)(C)C)c2cc(-c3ncccc3C(F)(F)F)c(F)cc12` (single isomer, unassigned) [Compound 18, (S or R)—N-(1-(5-fluoro-1-neopentyl-6-(3-(trifluoromethyl)pyridine-2-yl)-1H-indol-3-yl)ethyl)cyclopropane sulfonamide]: the EC50 is under 100 nM.

Regarding `CC(NS(=O)(=O)C1CC1)c1cn(CC(C)(C)C)c2cc(-c3ncccc3C#N)c(F)cc12` (single isomer, unassigned) [Compound 19, (R or S)—N-(1-(6-(3-cyanopyridin-2-yl)-5-fluoro-1-neopentyl-1H-indol-3-yl)ethyl)cyclopropanesulfonamide], the EC50 was under 100 nM.

As to `CC(NS(=O)(=O)C1CC1)c1cn(CC(C)(C)C)c2cc(-c3ncccc3C#N)c(F)cc12` (single isomer, unassigned) [Compound 20, (S or R)—N-(1-(6-(3-cyanopyridin-2-yl)-5-fluoro-1-neopentyl-1H-indol-3-yl)ethyl)cyclopropanesulfonamide], the EC50 was in the range of 100 to 1000 nM.

`CC(NS(=O)(=O)C1CC1)c1cn(CC(C)(C)C)c2cc(C3CCOCC3)ccc12` (single isomer, unassigned) [Compound 23, (R or S) N-(1-(1-neopentyl-6-(tetrahydro-2H-pyran-4-yl)-1H-indol-3-yl)ethyl)cyclopropanesulfonamide]: the EC50 was under 100 nM.

`CC(NS(=O)(=O)C1CC1)c1cn(CC(C)(C)C)c2cc(C3CCOCC3)ccc12` (single isomer, unassigned) [Compound 24, (S or R) N-(1-(1-neopentyl-6-(tetrahydro-2H-pyran-4-yl)-1H-indol-3-yl)ethyl)cyclopropanesulfonamide]: the EC50 fell in the range of 100 to 1000 nM.

Take `CC(NS(=O)(=O)C1CC1)c1cn(CC(C)(C)C)c2cc(-c3c(F)cccc3C#N)ccc12` (single isomer, unassigned) [Compound 26, (R or S) N-(1-(6-(2-cyano-6-fluorophenyl)-1-neopentyl-1H-indol-3-yl)ethyl)cyclopropanesulfonamide]: the EC50 lay within 100 to 1000 nM.

On to `CC(NS(=O)(=O)C1CC1)c1cn(CC(C)(C)C)c2cc(-c3c(F)cccc3C#N)ccc12` (single isomer, unassigned) [Compound 27, (S or R) N-[(1R)-1-[6-(2-cyano-6-fluoro-phenyl)-1-(2,2-dimethylpropyl)indol-3-yl]ethyl]cyclo], for which the EC50 was under 100 nM.

Regarding `CC(NS(=O)(=O)C1CC1)c1cn(CC(C)(C)C)c2cc(-c3cccnc3C(F)(F)F)c(F)cc12` (single isomer, unassigned) [Compound 28, N-[1-[1-(2,2-dimethylpropyl)-5-fluoro-6-[2-(trifluoromethyl)-3-pyridyl]indol-3-yl]ethyl]cyclopropanesulfonamide], the EC50 was under 100 nM.

For `CC(NS(=O)(=O)C1CC1)c1cn(CC(C)(C)C)c2cc(-c3cccnc3C(F)(F)F)c(F)cc12` (single isomer, unassigned) [Compound 29, (S or R) N-[1-[1-(2,2-dimethylpropyl)-5-fluoro-6-[2-(trifluoromethyl)-3-pyridyl]indol-3-yl]ethyl]cyclopropanesulfonamide], the EC50 lay within 100 to 1000 nM.

`CC(NS(=O)(=O)C1CC1)c1cn(CC(C)(C)C)c2cc(-c3cnccc3C#N)c(F)cc12` (single isomer, unassigned) [Compound 32, (R or S) N-(1-(6-(4-cyanopyridin-3-yl)-5-fluoro-1-neopentyl-1H-indol-3-yl)ethyl)cyclopropanesulfonamide]: the EC50 is under 100 nM.

Consider `CC(NS(=O)(=O)C1CC1)c1cn(CC(C)(C)C)c2cc(-c3cnccc3C#N)c(F)cc12` (single isomer, unassigned) [Compound 33, (S or R) N-(1-(6-(4-cyanopyridin-3-yl)-5-fluoro-1-neopentyl-1H-indol-3-yl)ethyl)cyclopropanesulfonamide], for which the EC50 was in the range of 100 to 1000 nM.

Regarding `CC(C)(C)Cn1cc([C@H](NS(=O)(=O)C2CC2)C(F)(F)F)c2ccc(-c3ccccc3C#N)nc21` [Compound 1, (S)—N-(1-(6-(2-cyanophenyl)-1-neopentyl-1H-pyrrolo[2,3-b]pyridin-3-yl)-2,2,2-trifluoroethyl)cyclopropanesulfonamide], the EC50 fell in the range of 100 to 1000 nM.

With `CC(C)(C)Cn1cc([C@H](NS(=O)(=O)C2CC2)C(F)(F)F)c2ccc(-c3cc(F)ccc3C#N)cc21` [Compound 2, (S)—N-(1-(6-(2-cyano-5-fluorophenyl)-1-neopentyl-1H-indol-3-yl)-2,2,2-trifluoroethyl)cyclopropanesulfonamide], the EC50 lay within 100 to 1000 nM.

Regarding `CC(C)(C)Cn1cc([C@H](NS(=O)(=O)C2CC2)C(F)(F)F)c2ccc(-c3cc(F)ccc3C(F)(F)F)cc21` [Compound 3, (S)—N-(2,2,2-trifluoro-1-(6-(5-fluoro-2-(trifluoromethyl)phenyl)-1-neopentyl-1H-indol-3-yl)ethyl)cyclopropanesulfonamide], the EC50 was under 100 nM.

For the compound `CC(C)(C)Cn1cc([C@H](NS(=O)(=O)C2CC2)C(F)F)c2ccc(-c3ccc(F)cc3C(F)(F)F)nc21` [Compound 4, (S)—N-(2,2-difluoro-1-(6-(4-fluoro-2-(trifluoromethyl)phenyl)-1-neopentyl-1H-pyrrolo[2,3-b]pyridin-3-yl)ethyl)cyclopropanesulfonamide], the EC50 was under 100 nM.

With `CC(C)(C)Cn1cc([C@H](NS(=O)(=O)C2CC2)C(F)(F)F)c2cc(F)c(-c3ccccc3OC(F)(F)F)cc21` [Compound 5, (S)—N-(2,2,2-trifluoro-1-(5-fluoro-1-neopentyl-6-(2-(trifluoromethoxy)phenyl)-H-indol-3-yl)ethyl)cyclopropanesulfonamide], the EC50 was under 100 nM.

As for `COc1cccc(C#N)c1-c1ccc2c([C@H](NS(=O)(=O)C3CCC3)C(F)(F)F)cn(CC(C)(C)C)c2c1` [Compound 6, (S)—N-(1-(6-(2-cyano-6-methoxyphenyl)-1-neopentyl-1H-indol-3-yl)-2,2,2-trifluoroethyl)cyclobutanesulfonamide], the EC50 was in the range of 100 to 1000 nM.

With `COc1cccc(C#N)c1-c1ccc2c([C@H](NS(=O)(=O)C3CC3)C(F)(F)F)cn(CC(C)(C)C)c2c1` [Compound 7, (S)—N-(1-(6-(2-cyano-6-methoxyphenyl)-1-neopentyl-1H-indol-3-yl)-2,2,2-trifluoroethyl)cyclopropanesulfonamide], the EC50 was 100 to 1000 nM.

Consider `CC(C)(C)Cn1cc([C@H](NS(=O)(=O)C2CC2)C(F)(F)F)c2cc(F)c(-c3cccnc3C(F)(F)F)cc21` [Compound 8, (S)—N-(2,2,2-trifluoro-1-(5-fluoro-1-neopentyl-6-(2-(trifluoromethyl)pyridin-3-yl)-1H-indol-3-yl)ethyl)cyclopropanesulfonamide], for which the EC50 fell in the range of 100 to 1000 nM.

Turning to `CC(C)(C)Cn1cc([C@H](NS(=O)(=O)C2CC2)C(F)(F)F)c2cc(F)c(-c3ncccc3C(F)(F)F)cc21` [Compound 9, (S)—N-(2,2,2-trifluoro-1-(5-fluoro-1-neopentyl-6-(3-(trifluoromethyl)pyridin-2-yl)-1H-indol-3-yl)ethyl)cyclopropanesulfonamide], the EC50 is 100 to 1000 nM.

As for `CC(C)(C)Cn1cc([C@H](NS(=O)(=O)C2CC2)C(F)(F)F)c2cc(F)c(-c3ncccc3C#N)cc21` [Compound 10, (S)—N-(1-(6-(3-cyanopyridin-2-yl)-5-fluoro-1-neopentyl-1H-indol-3-yl)-2,2,2-trifluoroethyl)cyclopropanesulfonamide], the EC50 fell in the range of 100 to 1000 nM.

As for `CC(C)(C)Cn1cc([C@H](NS(=O)(=O)C2CC(F)(F)C2)C(F)F)c2ccc(-c3ccccc3C(F)(F)F)cc21` [Compound 11, (S)—N-(2,2-difluoro-1-(1-neopentyl-6-(2-(trifluoromethyl)phenyl)-1H-indol-3-yl)ethyl)-3,3-difluorocyclobutane-1-sulfonamide], the EC50 is under 100 nM.

Turning to `Cc1ccccc1-c1cc2c(cc1F)c([C@H](NS(=O)(=O)C1CC1)C(F)F)cn2CC(C)(C)C` [Compound 12, (S)—N-(2,2-difluoro-1-(5-fluoro-1-neopentyl-6-(o-tolyl)-1H-indol-3yl)ethyl)cyclopropanesulfonamide], the EC50 was under 100 nM.

In the case of `CC(C)(C)Cn1cc([C@H](NS(=O)(=O)C2CC2)C(F)F)c2ccc(-c3cccnc3C(F)(F)F)cc21` [Compound 13, (S)—N-(2,2-difluoro-1-(1-neopentyl-6-(2-(trifluoromethyl)pyridin-3-yl)-1H-indol-3-yl)ethyl)cyclopropanesulfonamide], the EC50 is under 100 nM.
